Source: US20100240654A1, “HYDRAZIDE DERIVATIVES” (priority 2004, published 2010)
Structures can show the parent of a compound that is named as a salt.

Key:
[1] = target: T1, human clotting factor VIIa (Homo sapiens, UniProt P08709); experiment: Inhibitory activity against clotting factor VIIa (chromogenic substrate Spectrozyme FVIIa, with tissue factor); assay type: biochemical; conditions: 10 nmol/L TF, 5 nmol/L Factor VIIa, room temperature 40 minutes, 405 nm
T1 construct: a human clotting factor VIIa (Factor VIIa) purified sample; purchased Enzyme Research Laboratories (Factor VIIa); Calbiochem (tissue factor) HFVIIa (Factor VIIa); 612151 (tissue factor)
T1 sequence (P08709 213-466 limits assumed): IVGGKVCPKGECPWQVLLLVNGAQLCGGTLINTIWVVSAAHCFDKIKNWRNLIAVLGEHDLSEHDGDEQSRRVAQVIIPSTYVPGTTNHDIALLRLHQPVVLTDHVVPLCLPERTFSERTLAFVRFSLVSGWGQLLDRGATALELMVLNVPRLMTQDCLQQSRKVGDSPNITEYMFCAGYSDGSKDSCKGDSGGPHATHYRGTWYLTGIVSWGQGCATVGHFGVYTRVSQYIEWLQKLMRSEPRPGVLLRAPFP
T1 sequence (P08709 61-212 limits assumed): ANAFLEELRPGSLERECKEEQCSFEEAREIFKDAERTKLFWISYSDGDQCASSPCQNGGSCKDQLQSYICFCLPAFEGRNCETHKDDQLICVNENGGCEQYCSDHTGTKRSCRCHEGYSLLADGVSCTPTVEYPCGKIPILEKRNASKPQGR
T1 sequence (P13726 33-295 partner): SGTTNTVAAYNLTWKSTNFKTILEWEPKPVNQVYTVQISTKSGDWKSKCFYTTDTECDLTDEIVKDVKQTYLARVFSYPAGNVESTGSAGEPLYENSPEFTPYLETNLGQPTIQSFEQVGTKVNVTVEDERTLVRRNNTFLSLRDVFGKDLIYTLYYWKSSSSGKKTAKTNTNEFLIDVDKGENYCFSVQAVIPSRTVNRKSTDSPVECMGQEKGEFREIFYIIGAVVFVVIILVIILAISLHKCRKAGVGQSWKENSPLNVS
Description: Dimethylsulfoxide (DMSO) solutions were prepared with compounds of the invention at concentration of 10 mmol/L (10 mmol/L compound solutions).
One packet of tris-hydroxymethylaminomethane-preset (Tris Preset) (product of SIGMA Corp., Catalog No. T8293), 8.8 g of sodium chloride (NaCl) and 1 g of bovine serum albumin (BSA) were dissolved in 1 L of water to prepare a Tris-BSA buffer (100 mmol/L Tris, 0.15 mol/L NaCl, 0.1% BSA, pH 7.4).
The Tris-BSA buffer (180 μL) was added to the aforementioned 10 mmol/L compound solution (20 μL). A 10-fold dilution series was prepared for this mixture using the aforementioned Tris-BSA buffer, and solutions with the compound at concentrations of 1.0 mmol/L, 100, 10, 1, 0.1, 0.01 and 0.001 μmol/L were prepared (1.0 mmol-0.001 μmol/L compound solutions).
As a control, a solution was prepared by 10-fold dilution of DMSO with the Tris-BSA buffer (control 10% solution).
After dissolving one packet of Tris preset, NaCl (8.8 g) and BSA (1 g) in water (about 900 mL), there were added 1 mol/L aqueous calcium chloride (CaCl2) (15 mL) and 1 mg/mL aqueous cephalin (30 mL), and the total volume was brought to 1 L by adding water. To this solution was added a human tissue factor (TF) sample (product of Calbiochem, Catalog No. 612151) (450 μg) to a TF sample concentration of 10 nmol/L, and then a human clotting factor VIIa (Factor VIIa) purified sample (product of Enzyme Research Laboratories, Catalog No. HFVIIa) (250 μg) was added to a Factor VIIa purified sample concentration of 5 nmol/L, to prepare an enzyme solution (100 mmol/L Tris-HCl, 0.15 mol/L NaCl, 15 mmol/L CaCl2, 30 μg/mL cephalin, 1 mg/mL BSA, 10 nmol/L TF, 5 nmol/L Factor VIIa).
To 110 μL of this enzyme solution was added 15 μL of each of the 1.0 mmol-0.001 μmol/L compound solutions, and then 25 μL of a 1.0 mmol/L synthetic chromogenic substrate solution (Spectrozyme FVIIa) was added and the mixture was allowed to stand at room temperature for 40 minutes. Next, the amount of 4-nitroanilide released into the solution was quantitated by spectrophotometry (405 nm).
A control measurement was conducted in the same manner, using the control 10% solution instead of the compound solution.
This measurement yielded the enzyme reaction inhibition in the presence of 100 μmol/L to 0.1 nmol/L of each compound of the invention. The enzyme reaction inhibition at each compound concentration was subjected to non-linear regression analysis, and the IC50 value for inhibitory activity of each compound against clotting factor VIIa was calculated.

[2] = tested on: healthy human plasma; experiment: Blood clotting time prolongation (prothrombin time, steel ball method); conditions: human thromboplastin, 37° C.

| Compound | IC50 [1] | h PT × 1.1: compound concentration which produced 10% prolongation compared to the control clotting time [2] |
| --- | --- | --- |
| CCOc1cc(C(Nc2ccc(C(=N)N)cc2)C(=O)NNS(=O)(=O)c2ccc(NC(C)=O)cc2)ccc1OC(C)C.O=C(O)C(F)(F)F (stereo not drawn) [Example 9, N-(4-(2-(2-(4-Carbamimidoylphenylamino)-2-(3-ethoxy-4-isopropoxyphenyl)acetyl)hydrazinosulfonyl)phenyl)acetamide trifluoroacetate] | 316 nM | 1.30 µM |
| CCOc1cc(C(Nc2ccc(C(=N)N)cc2)C(=O)NNS(=O)(=O)c2ccccc2S(C)(=O)=O)ccc1OC(C)C.O=C(O)C(F)(F)F (stereo not drawn) [Example 10, 4-(1-(3-Ethoxy-4-isopropoxyphenyl)-2-(2-(2-methanesulfonyl)phenylsulfonyl)hydrazino)-2-oxoethylamino)benzamidine trifluoroacetate] | 233 nM | – |
| CCOc1cc(C(Nc2ccc(C(=N)N)cc2)C(=O)NNS(=O)(=O)c2ccccc2S(C)(=O)=O)ccc1OC(C)C.O=C(O)C(F)(F)F (stereo not drawn) [Example 10] | – | 1.20 µM |
| COc1cc(F)c(C(Nc2ccc(C(=N)N)cc2)C(=O)NNC(=O)c2ccccc2Cl)cc1OC.O=C(O)C(F)(F)F (stereo not drawn) [Example 23, 4-(2-(N′-(2-Chlorobenzoyl)hydrazino)-1-(2-fluoro-4,5-dimethoxyphenyl)-2-oxoethylamino)benzamidine trifluoroacetate] | 255 nM | 1.20 µM |
| CCOc1cc(C(Nc2ccc(C(=N)N)cc2)C(=O)NNc2ccccc2OC)ccc1OCCN(C)C.O=C(O)C(F)(F)F (stereo not drawn) [Example 56, 4-(((4-(2-Dimethylaminoethoxy)-3-ethoxyphenyl)-(N′-(2-methoxyphenyl)hydrazinocarbonyl)methyl)amino)benzamidine trifluoroacetate] | 198 nM | 0.41 µM |
| CCOc1cc(C(Nc2ccc(C(=N)N)cc2)C(=O)NNC(=O)c2ccncc2F)ccc1OCC(=O)N(C)C.O=C(O)C(F)(F)F (stereo not drawn) [Example 60, 2-(4-(1-(4-Carbamimidoylphenylamino)-2-(N′-(3-fluoropyridine-4-carbonyl)-hydrazino)-2-oxoethyl)-2-ethoxyphenoxy)-N,N-dimethyl-acetamide trifluoroacetate] | 203 nM | 0.30 µM |
| CCOc1cc(C(Nc2ccc(C(=N)N)cc2)C(=O)NNC(=O)c2ccncc2Cl)ccc1OCC(=O)N(C)C.O=C(O)C(F)(F)F (stereo not drawn) [Example 61, 2-(4-(1-(4-Carbamimidoylphenylamino)-2-(N′-(3-chloropyridine-4-carbonyl)hydrazino)-2-oxoethyl)-2-ethoxyphenoxy)-N,N-dimethylacetamide trifluoroacetate] | 184 nM | 0.41 µM |
| COc1cc(F)c(C(Nc2ccc(C(=N)N)cc2)C(=O)NNC(=O)c2ccccc2Br)cc1OC.O=C(O)C(F)(F)F (stereo not drawn) [Example 72, 4-(2-(N’-(2-Bromobenzoyl)hydrazino)-1-(2-fluoro-4,5-dimethoxyphenyl)-2-oxoethylamino)benzamidine trifluoroacetate] | 259 nM | 1.20 µM |
| CCOc1cc(C(Nc2ccc(C(=N)N)cc2)C(=O)NNC(=O)c2cnccc2C)ccc1OCCOC.O=C(O)C(F)(F)F (stereo not drawn) [Example 76, 4-(1-(3-Ethoxy-4-(2-methoxyethoxy)phenyl)-2-(N′-(4-methylpyridine-3-carbonyl)hydrazino)-2-oxoethylamino)benzamidine trifluoroacetate] | 169 nM | 0.63 µM |
| CCOc1cc(C(Nc2ccc(C(=N)N)cc2)C(=O)NNC(=O)c2ccccc2Cl)ccc1OCC(C)(C)N (stereo not drawn) [Example X-247, 4-[1-[4-(2-Amino-2-methylpropoxy)-3-ethoxyphenyl]-2-[N′-(2-chlorobenzoyl)-hydrazino]-2-oxoethylamino]benzamidine trifluoroacetate] | 336 nM | – |

More lines, in order of falling IC50 [1], values ahead:

| IC50 [1] | Compound | h PT × 1.1: compound concentration which produced 10% prolongation compared to the control clotting time [2] |
| --- | --- | --- |
| 164 nM | CCOc1cc(C(Nc2ccc(C(=N)N)cc2)C(=O)NNC(=O)c2ccncc2F)ccc1OCCN(C)C.O=C(O)C(F)(F)F (stereo not drawn) [Example 53, 4-(1-(4-(2-Dimethylaminoethoxy)-3-ethoxyphenyl)-2-oxo-2-(N′-(3-fluoropyridine-4-carbonyl)hydrazino)ethylamino)benzamidine trifluoroacetate] | 0.65 µM |
| 110 nM | CCOc1cc(C(Nc2ccc(C(=N)N)cc2)C(=O)NNC(=O)c2ccccc2[N+](=O)[O-])ccc1OC(C)C.O=C(O)C(F)(F)F (stereo not drawn) [Example 32, 4-(1-(3-Ethoxy-4-isopropoxyphenyl)-2-(N′-(2-nitrobenzoyl)hydrazino)-2-oxoethylamino)benzamidine trifluoroacetate] | 0.80 µM |
| 96 nM | CCOc1cc(C(Nc2ccc(C(=N)N)cc2)C(=O)NNc2ccccn2)ccc1OC(C)C.O=C(O)C(F)(F)F (stereo not drawn) [Example 2, 4-(((3-Ethoxy-4-isopropoxyphenyl)-(N′-pyridin-2-ylhydrazinocarbonyl)methyl)amino)benzamidine trifluoroacetate] | 1.00 µM |
| 84 nM | CCOc1cc(C(Nc2ccc(C(=N)N)cc2)C(=O)NNC(=O)c2cnccc2Cl)ccc1OC(C)C.O=C(O)C(F)(F)F (stereo not drawn) [Example 25, 4-(2-(N′-(4-Chloropyridine-3-carbonyl)hydrazino)-1-(3-ethoxy-4-isopropoxyphenyl)-2-oxoethylamino)benzamidine trifluoroacetate] | 1.20 µM |
| 69 nM | CCOc1cc(C(Nc2ccc(C(=N)N)cc2)C(=O)NNC(=O)c2cnccc2C)ccc1OC(C)C.O=C(O)C(F)(F)F (stereo not drawn) [Example 27, 4-(1-(3-Ethoxy-4-isopropoxyphenyl)-2-(N′-(4-methylpyridine-3-carbonyl)hydrazino)-2-oxoethylamino)benzamidine trifluoroacetate] | 0.74 µM |
| 63 nM | CCOc1cc(C(Nc2ccc(C(=N)N)cc2)C(=O)NNC(=O)c2ccncc2Br)ccc1OC(C)C.O=C(O)C(F)(F)F (stereo not drawn) [Example 34, 4-(2-(N′-(3-Bromopyridine-4-carbonyl)hydrazino)-1-(3-ethoxy-4-isopropoxyphenyl)-2-oxoethylamino)benzamidine trifluoroacetate] | 1.40 µM |
| 57 nM | CCOc1cc(C(Nc2ccc(C(=N)N)cc2)C(=O)NNC(=O)c2ccncc2Cl)ccc1OC(C)C.O=C(O)C(F)(F)F (stereo not drawn) [Example 33, 4-(2-(N′-(3-Chloropyridine-4-carbonyl)hydrazino)-1-(3-ethoxy-4-isopropoxyphenyl)-2-oxoethylamino)benzamidine trifluoroacetate] | 1.10 µM |
| 51 nM | CCOc1cc(C(Nc2ccc(C(=N)N)cc2)C(=O)NNc2ccccc2C(=O)O)ccc1OC(C)C.O=C(O)C(F)(F)F (stereo not drawn) [Example 3, 2-(N′-(2-(4-Carbamimidoylphenylamino)-2-(3-ethoxy-4-isopropoxyphenyl)acetyl)hydrazino)benzoic acid trifluoroacetate] | 1.00 µM |
